Reference: patent US20170042193A1, “Pet Food Compositions Having Antimicrobial Activity” (priority 2010, published 2017)
Where two headings read alike, the source gives them in different places.

Experiments:
Assay type in all cases: cell-based
[1] = system: Salmonella (S. aarhus, S. muenster E1 & S. worthington)
Procedure: The kibble diffusion test has similar principles as the disk diffusion method. […] […] Efficacy of the AMI was validated by measuring how closely the Salmonella cultures grew with respect to the saturated kibbles.
Commercial canine and feline adult pet food compositions in the form of kibbles were coated with potential AMIs. […] After incubation overnight at 30° C., plates were analyzed for presence of clear zones around the kibbles.

[2] = system: Salmonella (S. aarhus, S. muenster E1 and S. worthington); parameters: key to Salmonella growth or inhibition (MIC test): −: negative sign means inhibition; +: positive sign denotes growth
Procedure: The minimum inhibitory concentration (MIC) of an antimicrobial ingredient is defined as the maximum dilution of the product that will still inhibit the growth of Salmonella. Serial dilutions (0-3%, except for oregano 0-0.3%) were made of the AMI in bacterial growth media and poured in test tubes. The test organisms (S. aarhus, S. muenster E1 and S. worthington) were then added to the dilutions of the AMI ingredients to a final concentration of 10^6 or 10^3 cfu/g, incubated overnight at 30° C., and scored for growth by turbidity or plate counts.
Minimum Inhibitory Concentration was conducted for 10^3 and 10^6 cfu/g Salmonella. Results reported as negative sign means inhibition, while positive sign denotes growth.

[3] = system: Salmonella (S. aarhus, S. muenster E1 & S. worthington); remark: listed apart in the source
From the text: This test is typically used for antibiotic sensitivity in bacteria and was adapted to measure Salmonella growth suppression by ingredients with potential antimicrobial (AMI) activity. Discs of filter paper, approximately 5 mm in diameter, were soaked in an AMI at 1%, 2%, and 3%, except for oregano, which was soaked at 0.1%, 0.2% and 0.4% solution and placed on a Petri dish with standard methods agar with tetraphenyltetrazolium (TTC) that has been smeared with a standardized suspension of Salmonella (S. aarhus, S. muenster E1 & S. worthington). Efficacy of the AMI was validated by measuring how closely the Salmonella cultures grew with respect to the saturated filter paper.
Ingredients were screened for antimicrobial activity using the Disc Diffusion Test. Solutions of 1%, 2%, and 3% were prepared for each of these ingredients, except for oregano, which was prepared at 0.1%, 0.2%, and 0.4%. Soaking of the disks, placing them on a Standard Methods agar plate with TTC smeared with Salmonella and overnight incubation were done as discussed above. Efficacy of these ingredients was determined by measuring the clear zones (mm) around the disks (Table 2).

## O=P(O)(O)O [Inorganic Acid (Phosphoric acid), Phosphoric Acid]
[1]; coated kibbles, overnight at 30° C.
  inhibition of Salmonella, clear zone around the kibbles: inhibited Salmonella
[1]; kibble coated, 3%
  Zone of Inhibition-Diameter, Mean: 8 mm
  Zone of Inhibition-Diameter, REP I Plate 1: 9 mm
  Zone of Inhibition-Diameter, REP I Plate 2: 7 mm
  Zone of Inhibition-Diameter, REP II Plate 1: 7 mm
  Zone of Inhibition-Diameter, REP II Plate 2: 9 mm
  Zone of Inhibition-Diameter, REP III Plate 1: 9 mm
  Zone of Inhibition-Diameter, REP III Plate 2: 7 mm
[2]; 10^3 cfu/g Salmonella, antimicrobial level 0.03%
  Salmonella growth or inhibition (MIC test): +
[2]; 10^3 cfu/g Salmonella, antimicrobial level 0.15%
  Salmonella growth or inhibition (MIC test): +
[2]; 10^3 cfu/g Salmonella, antimicrobial level 0.3%
  Salmonella growth or inhibition (MIC test): +
[2]; 10^3 cfu/g Salmonella, antimicrobial level 0.9%
  Salmonella growth or inhibition (MIC test): −
[2]; 10^3 cfu/g Salmonella, antimicrobial level 1.5%
  Salmonella growth or inhibition (MIC test): −
[2]; 10^3 cfu/g Salmonella, antimicrobial level 2.1%
  Salmonella growth or inhibition (MIC test): −
[2]; 10^3 cfu/g Salmonella, antimicrobial level 3%
  Salmonella growth or inhibition (MIC test): −
[2]; 10^3 cfu/g Salmonella, antimicrobial level […]
  Salmonella growth or inhibition (MIC test): −
[2]; 10^6 cfu/g Salmonella, antimicrobial level 0.03%
  Salmonella growth or inhibition (MIC test): +
[2]; 10^6 cfu/g Salmonella, antimicrobial level 0.15%
  Salmonella growth or inhibition (MIC test): +
[2]; 10^6 cfu/g Salmonella, antimicrobial level 0.3%
  Salmonella growth or inhibition (MIC test): +
[2]; 10^6 cfu/g Salmonella, antimicrobial level 0.9%
  Salmonella growth or inhibition (MIC test): −
[2]; 10^6 cfu/g Salmonella, antimicrobial level 1.5%
  Salmonella growth or inhibition (MIC test): −
[2]; 10^6 cfu/g Salmonella, antimicrobial level 2.1%
  Salmonella growth or inhibition (MIC test): −
[2]; 10^6 cfu/g Salmonella, antimicrobial level 3%
  Salmonella growth or inhibition (MIC test): −
[2]; 10^6 cfu/g Salmonella, antimicrobial level […]
  Salmonella growth or inhibition (MIC test): −
[3]; R 1 (*3 replicates)
  clear zone around disk, Partial: 9.33 mm
  clear zone around disk, Total: 16.67 mm
[3]; R 2
  clear zone around disk, Partial: 14.33 mm
  clear zone around disk, Total: 24.0 mm
[3]; R 3
  clear zone around disk, Partial: 21.0 mm
  clear zone around disk, Total: 28.33 mm
[3]; order printed: Phosphoric acid>Phenols, pH 4.25-4.85>Oleoresin Oregano>92% Sodium Lactate and 6% Sodium Diacetate>Phenols, pH 4.8-6.0
  Antimicrobial activity against Salmonella, decreasing order: Antimicrobial activity against Salmonella was observed
